Test results as given in patent publication US20150315188A1, “COMPOUNDS AND METHODS FOR TREATMENT OF HYPERTENSION” (MEDIVATION TECHNOLOGIES, INC., priority 2012, published 2015).

Key:
Parameters in all cases: purchased Milipore (Millipore)
[1] = target: T1, Human adrenergic α1B receptor (Homo sapiens, UniProt P35368); assay: Radioligand binding, adrenergic α1B (Protocol Group B); settings: Protocol Group B; for Percentage inhibition of ligand binding, Adrenergic α1B (0.1 μM) / inhibition at 0.1 µM: 0.1 μM compound; for Percentage inhibition of ligand binding, Adrenergic α1B (0.3 μM) / inhibition at 0.3 µM: 0.3 μM compound; for inhibition at 0.1 µM: read-out: Percentage inhibition of ligand binding, Adrenergic α1B (0.1 μM); for inhibition at 0.3 µM: read-out: Percentage inhibition of ligand binding, Adrenergic α1B (0.3 μM)
T1 sequence (P35368 1-520): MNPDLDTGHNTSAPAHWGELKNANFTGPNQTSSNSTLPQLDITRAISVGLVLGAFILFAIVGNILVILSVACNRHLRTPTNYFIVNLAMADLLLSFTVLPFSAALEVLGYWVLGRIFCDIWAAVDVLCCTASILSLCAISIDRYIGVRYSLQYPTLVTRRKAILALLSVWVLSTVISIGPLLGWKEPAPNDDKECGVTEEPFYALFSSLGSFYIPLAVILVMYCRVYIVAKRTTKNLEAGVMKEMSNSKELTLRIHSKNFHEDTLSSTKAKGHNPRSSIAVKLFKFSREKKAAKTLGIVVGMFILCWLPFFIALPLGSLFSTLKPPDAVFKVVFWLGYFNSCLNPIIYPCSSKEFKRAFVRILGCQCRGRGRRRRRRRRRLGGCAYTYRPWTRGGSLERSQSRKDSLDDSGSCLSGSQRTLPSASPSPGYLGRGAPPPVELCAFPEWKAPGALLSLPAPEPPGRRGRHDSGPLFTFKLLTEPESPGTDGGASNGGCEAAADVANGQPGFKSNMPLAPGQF
Procedure, shortened: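 Values are percent inhibition of specific [3H]prazosin (0.3 nM) binding or estimated Ki, from filtration counting. Human α1B recombinant membranes, Tris-HCl pH 7.4 buffer with MgCl2 and EDTA, 60 min at 25 °C, 1% DMSO vehicle; 10 μM prazosin defined nonspecific binding.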

[2] = target: T2, Human adrenergic α2B receptor (Homo sapiens, UniProt P18089); assay: Radioligand binding, adrenergic α2B (Protocol Group B); settings: Protocol Group B; for Percentage inhibition of ligand binding, Adrenergic α2B (10 nM) / inhibition at 0.01 µM: 10 nM compound; for Percentage inhibition of ligand binding, Adrenergic α2B (10 nM): 0.01 µM; for Percentage inhibition of ligand binding, Adrenergic α2B (30 nM) / inhibition at 0.03 µM: 30 nM compound; for Percentage inhibition of ligand binding, Adrenergic α2B (30 nM): 0.03 µM; for Percentage inhibition of ligand binding, Adrenergic α2B (0.1 μM) / inhibition at 0.1 µM: 0.1 μM compound; for inhibition at 0.01 µM: read-out: Percentage inhibition of ligand binding, Adrenergic α2B (10 nM); for inhibition at 0.03 µM: read-out: Percentage inhibition of ligand binding, Adrenergic α2B (30 nM); for inhibition at 0.1 µM: read-out: Percentage inhibition of ligand binding, Adrenergic α2B (0.1 μM)
T2 sequence (P18089 1-450): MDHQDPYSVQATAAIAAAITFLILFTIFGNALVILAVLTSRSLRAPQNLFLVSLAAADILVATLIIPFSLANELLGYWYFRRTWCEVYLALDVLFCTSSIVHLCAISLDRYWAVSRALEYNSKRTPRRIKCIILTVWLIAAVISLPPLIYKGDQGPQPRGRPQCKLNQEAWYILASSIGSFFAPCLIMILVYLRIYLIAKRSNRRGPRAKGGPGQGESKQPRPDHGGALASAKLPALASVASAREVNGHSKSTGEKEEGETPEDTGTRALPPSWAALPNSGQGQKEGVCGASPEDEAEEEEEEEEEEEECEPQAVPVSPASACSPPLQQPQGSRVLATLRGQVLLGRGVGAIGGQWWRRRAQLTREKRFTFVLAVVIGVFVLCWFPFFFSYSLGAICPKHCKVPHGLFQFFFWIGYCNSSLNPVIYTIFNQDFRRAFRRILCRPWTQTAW
Procedure, shortened: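 Compounds at various concentrations in 1% DMSO were tested on recombinant membranes in Tris-HCl pH 7.4 buffer containing MgCl2, CaCl2 and 0.2% BSA.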

[3] = target: T3, Human adrenergic α2A receptor (Homo sapiens, UniProt P08913); assay: Radioligand binding, adrenergic α2A (Protocol Group B); settings: Protocol Group B; for Percentage inhibition of ligand binding, Adrenergic α2A (0.1 μM) / inhibition at 0.1 µM: 0.1 μM compound; for Percentage inhibition of ligand binding, Adrenergic α2A (0.3 μM) / inhibition at 0.3 µM: 0.3 μM compound; for inhibition at 0.1 µM: read-out: Percentage inhibition of ligand binding, Adrenergic α2A (0.1 μM); for inhibition at 0.3 µM: read-out: Percentage inhibition of ligand binding, Adrenergic α2A (0.3 μM)
T3 sequence (P08913 1-465): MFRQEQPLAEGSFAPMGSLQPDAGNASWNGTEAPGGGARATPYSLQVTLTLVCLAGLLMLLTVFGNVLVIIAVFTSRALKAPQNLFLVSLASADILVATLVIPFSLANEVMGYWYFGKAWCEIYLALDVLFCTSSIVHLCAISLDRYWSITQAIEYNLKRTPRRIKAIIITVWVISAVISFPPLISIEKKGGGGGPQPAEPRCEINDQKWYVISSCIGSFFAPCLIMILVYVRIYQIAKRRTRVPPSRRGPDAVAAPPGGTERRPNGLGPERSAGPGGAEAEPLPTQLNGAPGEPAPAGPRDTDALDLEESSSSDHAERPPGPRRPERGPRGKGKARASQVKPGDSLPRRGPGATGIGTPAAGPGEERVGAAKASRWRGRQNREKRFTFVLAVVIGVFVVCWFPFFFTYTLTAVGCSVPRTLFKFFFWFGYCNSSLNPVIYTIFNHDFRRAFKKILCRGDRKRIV
Procedure, shortened: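 Compounds (1% DMSO vehicle, various concentrations) competed against 2 nM [^3H]MK-912 on recombinant receptor membranes for 60 min at 25° C, Tris-HCl pH 7.4 buffer with Mg2+, Ca2+, BSA. Bound radioligand filtered and counted; 10 μM rauwolscine set nonspecific binding. Values: percent inhibition of specific binding or estimated Ki.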

SMILES	Percentage inhibition of ligand binding, Adrenergic α1B (0.1 μM) [1] [%]	Percentage inhibition of ligand binding, Adrenergic α1B (0.3 μM) [1] [%]	Percentage inhibition of ligand binding, Adrenergic α2B (10 nM) [2] [%]	Percentage inhibition of ligand binding, Adrenergic α2B (30 nM) [2] [%]	Percentage inhibition of ligand binding, Adrenergic α2B (0.1 μM) [2] [%]	Percentage inhibition of ligand binding, Adrenergic α2A (0.1 μM) [3] [%]	Percentage inhibition of ligand binding, Adrenergic α2A (0.3 μM) [3] [%]	inhibition at 0.01 µM [2] [%]	inhibition at 0.1 µM [1] [%]	inhibition at 0.3 µM [1] [%]	inhibition at 0.03 µM [2] [%]	inhibition at 0.1 µM [2] [%]	inhibition at 0.1 µM [3] [%]	inhibition at 0.3 µM [3] [%]	Ki ([2]; estimated Ki, read-out: Ki α2B) [nM]
Cc1ccc2c(c1)c1c(n2CC(O)c2ccccn2)CC2CCCN2C1 (single isomer, unassigned) [45b]	18	52	4	7	23	−3	9								
CC(O)(Cn1c2c(c3cc(F)ccc31)C1CCCN1CC2)c1ccncc1 (single isomer, unassigned) [31c]	1	−4		−2	45	0	−21	3							
Cc1ccc2c(c1)c1c(n2CC(C)(O)c2cccnc2)CC(CO)N(C)C1 (single isomer, unassigned) [15a]			19	48	68	14	14		17	25					
CC(O)(Cn1c2c(c3cc(F)ccc31)C1CCCN1CC2)c1cccnc1 (stereo not shown) [51a]	−6	19	79	93	97	16	39								
Cc1ccc2c(c1)c1c(n2CC(C)(O)c2cccnc2)CC2CCC1N2C (single isomer, unassigned) [101d]	4	8	−2	−3	9	−10	3								
Cc1ccc2c(c1)c1c(n2CC(C)(O)c2cccnc2)CC2CCC1N2C (single isomer, unassigned) [101c]	12	7	7	5	16	6	7								
Cc1ccc2c(c1)c1c(n2CC(C)(O)c2cccnc2)CC2CCCN2C1 (stereo not shown) [41c]	1	−5	−8	−10	0	−12	1								
Cc1ccc2c(c1)c1c(n2CC(C)(O)c2cncc(F)c2)CCN(C)C1 (single isomer, unassigned) [46a]	6	27	33	60	82	20	35								

Continued, values first:

Percentage inhibition of ligand binding, Adrenergic α1B (0.1 μM) [1] [%]	Percentage inhibition of ligand binding, Adrenergic α1B (0.3 μM) [1] [%]	Percentage inhibition of ligand binding, Adrenergic α2B (10 nM) [2] [%]	Percentage inhibition of ligand binding, Adrenergic α2B (30 nM) [2] [%]	Percentage inhibition of ligand binding, Adrenergic α2B (0.1 μM) [2] [%]	Percentage inhibition of ligand binding, Adrenergic α2A (0.1 μM) [3] [%]	Percentage inhibition of ligand binding, Adrenergic α2A (0.3 μM) [3] [%]	inhibition at 0.01 µM [2] [%]	inhibition at 0.1 µM [1] [%]	inhibition at 0.3 µM [1] [%]	inhibition at 0.03 µM [2] [%]	inhibition at 0.1 µM [2] [%]	inhibition at 0.1 µM [3] [%]	inhibition at 0.3 µM [3] [%]	Ki ([2]; estimated Ki, read-out: Ki α2B) [nM]	SMILES
0			9		3										Cc1cc(F)cc2c3c(n(CC(O)c4ccncc4)c12)CCN1CCCC31 (single isomer, unassigned) [136c]
							-10	-6	-4	-4	-2	-6	-1		Cc1ccc2c(c1)c1c(n2CC(C)(O)c2cccnc2)CCN(CC(F)F)C1 (stereo not shown) [compound 58, 1-(2-(2,2-difluoroethyl)-8-methyl-3,4-dihydro-1H-pyrido[4,3-b]indol-5(2H)-yl)-2-(pyridin-3-yl)propan-2-ol]
−19	6	−1	24		−2	11									Cc1cc(Cl)c2c(c1)c1c(n2CC(C)(O)c2ccncc2)CCN2CCCC12 (single isomer, unassigned) [91d]
22	43	21	45		14						72		30		Cc1cc(F)c2c(c1)c1c(n2CC(C)(O)c2ccncc2)CC2CCCN2C1 (single isomer, unassigned) [62a]
4	33	74	91	97	34	54								1.8	CC(O)(Cn1c2c(c3cc(Cl)cc(F)c31)C1CCCN1CC2)c1cccnc1 (single isomer, unassigned) [53b]
							4	10	11	-12	-13	10	15		CN1CCc2c(c3c(Cl)ccc(Cl)c3n2CC(O)c2cccnc2)C1 (stereo not shown) [Compound No. 17, 2-(6,9-dichloro-2-methyl-3,4-dihydro-1H-pyrido[4,3-b]indol-5 (2H)-yl)-1-(pyridin-3-yl)ethanol]
